Measured values taken from patent US20090088449A1, “4-ACYLAMINOPYRIDINE DERIVATIVE MEDIATED NEUROGENESIS” (MITSUBISHI TANABE PHARMA CORPORATION, priority 2006, published 2009).

Tests used:
[1] = tested on: Human Neural Stem Cells; assay: MKC-231 in combination with an AMPA antagonist (NBQX), neuronal differentiation of human neural stem cells; format: cell-based
Experimental: FIG. 7 is a dose-response curve showing inhibition of the effects of the agent MKC-231 on neuronal differentiation by combination with an AMPA antagonist (NBQX). Data is presented as the percentage of the neuronal positive control, with basal media values subtracted.
Experiments with various concentrations of MKC-231 alone or with 1.0 μM of an AMPA antagonist (NBQX) were carried out generally as described in Example 1 for neuronal differentiation. […] The data also indicate that MKC-231 exerts some of its neurogenic effect as through the AMPA receptor activation.

[2] = cited from earlier work; for stability at room temperature and during storage: room temperature (about 25° C.), over time
[3] = tested on: male F344 rats; assay: Novelty suppressed feeding in rat; format: in vivo; settings: for change in latency to eat the food pellet: 21-day administration
Experimental: BCI-540 was administered to male F344 rats by oral gavage once daily for 21 days (1.0 mg/kg/day, p.o.). Fluoxetine was administered by oral gavage once daily for 21 days (10 mg/kg/day, p.o.). BrdU was administered once daily for 5 days (days 9 to 14, 100 mg/kg/day, i.p.). Animals were tested after 21 days of drug administration.
Shown in FIG. 9 is the change in latency to eat compared to vehicle control (±SEM). The y-axis represents percent change compared to vehicle control. The x-axis indicates treatment. Vehicle is set to 100%. The black line indicates 100% of vehicle control.

[4] = tested on: Human neural stem cells (hNSCs); assay: Neuronal differentiation of human neural stem cells (TUJ-1 staining); format: cell-based
From the text: Human neural stem cells (hNSCs) were isolated and grown in monolayer culture, plated, treated with varying concentrations of MKC-231 (test compound), and stained with TUJ-1 antibody, as described in U.S. Provisional Application No. 60/697,905 (incorporated by reference). Mitogen-free test media with a positive control for neuronal differentiation was used along with basal media without growth factors as a negative control.
The dose response curve of the neuronal positive control is included as a reference. The data is presented as a percent of neuronal positive control.

[5] = tested on: hNSCs; assay: Astrocyte differentiation of hNSCs (GFAP staining); format: cell-based, human
Experimental: Experiments were carried out as described in Example 1, except the positive control for astrocyte differentiation contained mitogen-free test media with positive control for astrocyte differentiation, and cells were stained with GFAP antibody.

[6] = tested on: Human Neural Stem Cells; assay: Toxic/trophic effect on human neural stem cells (Hoechst 33342 cell count); format: cell-based; settings: concentrations up to 31.6 μM
Experimental: Experiments were carried out as described in Example 1, except that the cells were stained with a nuclear dye (Hoechst 33342).
The data therein is shown as a percentage of the basal media cell count. Concentrations that are toxic fall below 80% of the basal cell count. Trophic compounds show dose dependent increases in cell count.

[7] = tested on: Human Neural Stem Cells; assay: MKC-231 in combination with an AMPA agonist, neuronal differentiation of human neural stem cells; format: cell-based; settings: for EC50: Homo sapiens, Neural stem cell
Experimental: FIG. 4 is a dose-response curve showing enhancement of the effects of the agent MKC-231 on neuronal differentiation by combination with an AMPA agonist (AMPA). Data is presented as the percentage of the neuronal positive control, with basal media values subtracted.
FIG. 6 is the average does response curve of multiple experiments (N=6) showing enhancement of the effects of the agent MKC-231 on neuronal differentiation by combination with affixed concentration of AMPA agonist (0.32 μM AMPA). […] Data is presented as the percentage of the neuronal positive control, with basal media values subtracted.
Experiments with various concentrations of MKC-231 alone or with 0.316 μM of an AMPA agonist (AMPA) were carried out generally as described in Example 1 for neuronal differentiation. […] The data also indicate that MKC-231 apparently exerts some of its neurogenic effect as an AMPA potentiator or sensitizer. Also see FIG. 6 relating to BCI-540 in combination with AMPA and neuronal differentiation.

[8] = tested on: male F344 rats; assay: Hippocampal neurogenesis in rat (BrdU); format: in vivo
Experimental: BCI-540 was administered to male F344 rats by oral gavage once daily for 28 days (1.0 and 4.0 mg/kg/day, p.o.). BrdU was administered once daily for 5 days (days 9 to 14, 100 mg/kg/day, i.p.). Animals were sacrificed on day 28. Brains were removed and processed for evaluation of neurogenesis.
The y-axis represents percent change compared to vehicle control. The x-axis indicates treatment with vehicle set to 100% (black bar) and BCI-540 dosed at 1.0 and 4.0 mg/kg/day (black hatched bars). The black line indicates 100% of vehicle control.

[9] = tested on: male Sprague Dawley rats; assay: Elevated plus maze (animal model of anxiety); format: in vivo, rat
Experimental: BCI-540 was administered to male Sprague Dawley rats by oral gavage once daily for 21 days (1.0 mg/kg/day, p.o.). As a positive control, the anxiolytic diazepam (1.5 mg/kg, i.p.) was administered one time, 30 minutes prior to testing.
The y-axis represents percent time on the open arm. The x-axis indicates treatment with vehicle (black bar), positive control diazepam (gray bar), and BCI-540 treated animals (black hatched bars) (n=15/group).

[10] = molecular target: acetylcholinesterase (AChE) (Homo sapiens, UniProt P22303); settings: cited from earlier work
[11] = 1.0 mg/kg daily p.o. for 21 days

Chain of acetylcholinesterase (AChE) (P22303 32-614, species assumed): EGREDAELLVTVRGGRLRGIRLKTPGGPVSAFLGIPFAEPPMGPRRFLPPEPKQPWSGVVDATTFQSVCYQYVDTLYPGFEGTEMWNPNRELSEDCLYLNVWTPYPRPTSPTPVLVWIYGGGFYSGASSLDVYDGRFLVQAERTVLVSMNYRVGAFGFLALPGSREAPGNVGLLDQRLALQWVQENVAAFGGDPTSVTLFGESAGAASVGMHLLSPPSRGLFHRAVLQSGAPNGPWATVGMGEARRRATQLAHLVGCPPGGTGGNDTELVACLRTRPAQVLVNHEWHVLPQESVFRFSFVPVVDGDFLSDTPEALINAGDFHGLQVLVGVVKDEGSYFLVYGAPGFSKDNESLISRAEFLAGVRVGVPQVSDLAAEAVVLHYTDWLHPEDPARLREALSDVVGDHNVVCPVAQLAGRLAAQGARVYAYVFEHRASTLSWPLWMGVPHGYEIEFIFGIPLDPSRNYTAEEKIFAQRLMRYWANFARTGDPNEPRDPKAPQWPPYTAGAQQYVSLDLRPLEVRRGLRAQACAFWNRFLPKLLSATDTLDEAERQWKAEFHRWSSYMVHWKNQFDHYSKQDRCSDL

NS(=O)(=O)c1cccc2c1c([N+](=O)[O-])cc1nc(O)c(O)nc12 [NBQX, reference compound]
effect of AMPA antagonist on MKC-231 stimulated neuronal differentiation ([1]; 1.0 μM NBQX): inhibits the stimulation of neuronal differentiation

Cc1oc2nc3c(c(NC(=O)CC4CNC(=O)C4)c2c1C)CCCC3 (stereo not drawn) [form A crystal, N-(2,3-dimethyl-5,6,7,8-tetrahydrofuro[2,3-b]quinolin-4-yl)-2-(2-oxopyrrolidin-4-yl)acetamide]
stability at room temperature and during storage [2]: better stability | stability in storage [2]: greater stability in storage than the form B crystal

CNCCC(Oc1ccc(C(F)(F)F)cc1)c1ccccc1 (stereo not drawn) [fluoxetine, reference compound]
decrease in latency to eat compared to vehicle control ([3]; 10.0 mg/kg daily p.o. for 21 days): 38% | change in latency to eat the food pellet [3]: statistically significant decrease

Cc1oc2nc3c(c(NC(=O)CC4CNC(=O)C4)c2c1C)CCCC3 (stereo not drawn) [form B crystal, N-(2,3-dimethyl-5,6,7,8-tetrahydrofuro[2,3-b]quinolin-4-yl)-2-(2-oxopyrrolidin-4-yl)acetamide]
stability at room temperature and during storage [2]: lower stability | stability in storage [2]: lower stability in storage than the form A crystal

Cc1oc2nc3c(c(NC(=O)CN4CCCC4=O)c2c1C)CCCC3 [MKC-231, 2-(2-oxypyrrolidin-1-yl)-N-(2,3-dimethyl-5,6,7,8-tetrahydrofuro(2,3-b)quinolin-4-yl)acetoamide]
neuronal differentiation above background levels ([4]; FIG. 1): promoted neuronal differentiation above background levels | EC50 ([4]; Homo sapiens, Neural stem cell, MKC-231 alone, percent of neuronal positive control, basal media subtracted (FIG. 1)): 5.1 µM | astrocyte differentiation above basal media values ([5]; FIG. 2): no significant increase | EC50 astrocyte differentiation ([5]; percent of astrocyte positive control, basal media subtracted (FIG. 2)): undeterminable | toxicity (cell count below 80% of basal cell count) [6]: no toxicity | EC50 ([7]; read-out: EC50 neuronal differentiation, MKC-231 in the presence of a fixed concentration AMPA): 0.22 µM | EC50 ([7]; average of multiple experiments (N=6) (FIG. 6), read-out: EC50 neuronal differentiation, MKC-231 alone): 3.7 µM | EC50 ([7]; with 0.316 μM AMPA agonist (AMPA) (FIG. 4), read-out: EC50 neuronal differentiation, MKC-231 in combination with AMPA): 0.99 µM | EC50 ([1]; Homo sapiens, Neural stem cell, with 1.0 μM NBQX (FIG. 7)): > 31.6 µM | increase in new neurons within the granule cell layer of the dentate gyrus compared to vehicle control ([8]; 1.0 mg/kg daily p.o. for 28 days): 22% | increase in new neurons within the granule cell layer of the dentate gyrus compared to vehicle control ([8]; 4.0 mg/kg daily p.o. for 28 days): 20% | change in new neurons within the granule cell layer of the dentate gyrus ([8]; 1.0 and 4.0 mg/kg daily for 28 days): statistically significant increase | decrease in latency to eat compared to vehicle control [3, 11]: 35% | change in latency to eat the food pellet [3]: statistically significant decrease | increase in the time spent on the open arms [9, 11]: 20% | time spent on the open arms ([9]; chronic administration, 1.0 mg/kg/day p.o., 21 days): significant increase | AChE inhibitory activity [10]: does not have such inhibitory activity

Cc1o[nH]c(=O)c1CC(N)C(=O)O (stereo not drawn) [AMPA, reference compound]
effect of AMPA agonist on MKC-231 stimulated neuronal differentiation ([7]; 0.316 μM AMPA): enhances the stimulation of neuronal differentiation | neuronal differentiation by AMPA alone ([7]; 0.32 μM AMPA alone (FIG. 6)): does not promote neuronal differentiation alone

CN1C(=O)CN=C(c2ccccc2)c2cc(Cl)ccc21 [diazepam, reference compound]
increase in time spent on the open arms ([9]; single administration, 1.5 mg/kg i.p., 30 minutes prior to testing): 12%
